This is an account of results in ChEMBL document CHEMBL5344406, “1,2,3-Triazole-containing hybrids with potential antibacterial activity against ESKAPE pathogens” (2022).

The structures appear in SMILES notation. ≈ marks a conversion by molar mass, not a printed value.

What all share (assay type): functional
Experiment [1] concerns Staphylococcus aureus. Description: Antibacterial activity against methicillin-resistant Staphylococcus aureus assessed as bacterial growth inhibition by agar dilution method. (In agar dilution, organisms are placed on agar that contains the substance at set levels.)
The subject of experiment [2] is Staphylococcus aureus. As to the kind of experiment: Antibacterial activity against multidrug-resistant Staphylococcus aureus clinical isolate assessed as bacterial growth inhibition by broth dilution method. Background: In broth dilution the organism is exposed to a series of concentrations in liquid medium.
In experiment [3] the test system is Staphylococcus aureus. As to the kind of experiment: Potency index, ratio of Norfloxacin MIC to test compound MIC for antibacterial activity against Staphylococcus aureus assessed as bacterial growth inhibition by broth dilution method.
Experiment [4] concerns Staphylococcus aureus. As to the kind of experiment: Antibacterial activity against Staphylococcus aureus assessed as bacterial growth inhibition by broth dilution method.
In experiment [5] the test system is Staphylococcus aureus. As to the kind of experiment: Potency index, ratio of Pleuromutilin MIC to test compound MIC for antibacterial activity against Staphylococcus aureus ATCC 43300 incubated for 24 hrs by CLSI based broth dilution method.
The subject of experiment [6] is Staphylococcus aureus. As to the kind of experiment: Potency index, ratio of Pleuromutilin MIC to test compound MIC for antibacterial activity against Staphylococcus aureus clinical isolate AD3 incubated for 24 hrs by CLSI based broth dilution method.
The subject of experiment [7] is Staphylococcus aureus. Description: Antibacterial activity against methicillin-resistant Staphylococcus aureus ATCC 43300 infected in neutropenic mouse model of thigh infection assessed as reduction in bacterial load at 20 mg/kg, iv measured after 24 hrs by colony counting method.
Experiment [8] deals with Staphylococcus aureus. Description: Antibacterial activity against Staphylococcus aureus clinical isolate AD3 assessed as bacterial growth inhibition incubated for 24 hrs by CLSI based broth dilution method.
Experiment [9] relates to Staphylococcus aureus. Description: Antibacterial activity against Staphylococcus aureus clinical isolate 144 assessed as bacterial growth inhibition incubated for 24 hrs by CLSI based broth dilution method.
For experiment [10], the system named is Staphylococcus aureus. Description: Antibacterial activity against Staphylococcus aureus ATCC 43300 assessed as bacterial growth inhibition incubated for 24 hrs by CLSI based broth dilution method.
Experiment [11] relates to Staphylococcus aureus. Description: Antibacterial activity against Staphylococcus aureus ATCC 29213 assessed as bacterial growth inhibition incubated for 24 hrs by CLSI based broth dilution method.
Experiment [12] concerns Staphylococcus aureus. As to the kind of experiment: Potency index, ratio of Pleuromutilin MIC to test compound MIC for antibacterial activity against Staphylococcus aureus clinical isolate 144 incubated for 24 hrs by CLSI based broth dilution method.
Experiment [13] concerns Staphylococcus aureus. Description: Potency index, ratio of Pleuromutilin MIC to test compound MIC for antibacterial activity against Staphylococcus aureus ATCC 29213 incubated for 24 hrs by CLSI based broth dilution method.
Experiment [14] concerns Staphylococcus aureus. As to the kind of experiment: Antibacterial activity against methicillin-resistant Staphylococcus aureus assessed as bacterial growth inhibition.
The test system of experiment [15] is Streptococcus pneumoniae. Description: Antibacterial activity against erythromycin-resistant Streptococcus pneumoniae AB11 expressing ermB/mefA assessed as bacterial growth inhibition incubated for 24 hrs by CLSI based broth microdilution method.
The subject of experiment [16] is Staphylococcus aureus. As to the kind of experiment: Antibacterial activity against penicillin-resistant Staphylococcus aureus ATCC 31007 assessed as bacterial growth inhibition incubated for 24 hrs by CLSI based broth microdilution method.
Experiment [17] relates to Escherichia coli. As to the kind of experiment: Antibacterial activity against Escherichia coli clinical isolate assessed as bacterial growth inhibition by disk diffusion method.
The subject of experiment [18] is Streptococcus pyogenes. As to the kind of experiment: Potency index, ratio of azithromycin MIC to test compound MIC for antibacterial activity against erythromycin-resistant Streptococcus pyogenes clinical isolate 2 assessed as bacterial growth inhibition incubated for 24 hrs by CLSI based broth microdilution method.
The test system of experiment [19] is Staphylococcus aureus. As to the kind of experiment: Potency index, ratio of azithromycin MIC to test compound MIC for antibacterial activity against penicillin-resistant Staphylococcus aureus ATCC 31007 assessed as bacterial growth inhibition incubated for 24 hrs by CLSI based broth microdilution method.
Experiment [20] has as its system Staphylococcus aureus. Description: Potency index, ratio of azithromycin MIC to test compound MIC for antibacterial activity against methicillin-resistant Staphylococcus aureus ATCC 43300 assessed as bacterial growth inhibition incubated for 24 hrs by CLSI based broth microdilution method.
Experiment [21] concerns Streptococcus pneumoniae. As to the kind of experiment: Antibacterial activity against erythromycin-resistant Streptococcus pneumoniae B1 expressing ermB assessed as bacterial growth inhibition incubated for 24 hrs by CLSI based broth microdilution method.
Experiment [22] deals with Streptococcus pyogenes. Description: Antibacterial activity against erythromycin-resistant Streptococcus pyogenes clinical isolate 2 assessed as bacterial growth inhibition incubated for 24 hrs by CLSI based broth microdilution method.
The test system of experiment [23] is Streptococcus pneumoniae. As to the kind of experiment: Potency index, ratio of azithromycin MIC to test compound MIC for antibacterial activity against erythromycin-resistant Streptococcus pneumoniae B1 expressing ermB assessed as bacterial growth inhibition incubated for 24 hrs by CLSI based broth microdilution method.
For experiment [24], the system named is Staphylococcus aureus. Description: Antibacterial activity against methicillin-resistant Staphylococcus aureus ATCC 43300 assessed as bacterial growth inhibition incubated for 24 hrs by CLSI based broth microdilution method.
Experiment [25] has as its system Staphylococcus aureus. Description: Antibacterial activity against Staphylococcus aureus clinical isolate assessed as bacterial growth inhibition by disk diffusion method.
Experiment [26] has as its system Streptococcus pneumoniae. As to the kind of experiment: Potency index, ratio of azithromycin MIC to test compound MIC for antibacterial activity against erythromycin-resistant Streptococcus pneumoniae AB11 expressing ermB/mefA assessed as bacterial growth inhibition incubated for 24 hrs by CLSI based broth microdilution method.
For experiment [27], the system named is Bacillus subtilis. As to the kind of experiment: Potency index, ratio of Streptomycin MIC to test compound MIC for antibacterial activity against Bacillus subtilis assessed as bacterial growth inhibition incubated for 18 to 20 hrs by broth microdilution method. Conditions: time 18-20 hrs.
Experiment [28] concerns Escherichia coli. As to the kind of experiment: Potency index, ratio of Streptomycin MIC to test compound MIC for antibacterial activity against Escherichia coli JM109 assessed as bacterial growth inhibition incubated for 18 to 20 hrs by broth microdilution method. Conditions: time 18-20 hrs.
The subject of experiment [29] is Bacillus subtilis. As to the kind of experiment: Antibacterial activity against Bacillus subtilis assessed as bacterial growth inhibition incubated for 18 to 20 hrs by broth microdilution method. The following applies: time 18-20 hrs.
Experiment [30] concerns Escherichia coli. Description: Antibacterial activity against Escherichia coli JM109 assessed as bacterial growth inhibition incubated for 18 to 20 hrs by broth microdilution method. Conditions: time 18-20 hrs.
For experiment [31], the system named is Staphylococcus aureus. Description: Antibacterial activity against Staphylococcus aureus 209p ATCC 6538P assessed as bacterial growth inhibition incubated for 1 to 2 days by serial dilution method. Conditions: time 1-2 day.
The subject of experiment [32] is Staphylococcus aureus. Description: Antibacterial activity against Staphylococcus aureus C-18 clinical isolate assessed as bacterial growth inhibition incubated for 1 to 2 days by serial dilution method. Conditions: time 1-2 day.
Experiment [33] deals with Staphylococcus aureus. As to the kind of experiment: Antibacterial activity against Staphylococcus aureus Viotko assessed as bacterial growth inhibition incubated for 1 to 2 days by serial dilution method. Conditions: time 1-2 day.
The test system of experiment [34] is Escherichia coli. As to the kind of experiment: Antibacterial activity against Ciprofloxacin-resistant Escherichia coli assessed as bacterial growth inhibition.
The next experiment relates to Acinetobacter baumannii. Description: Antibacterial activity against Ciprofloxacin-resistant Acinetobacter baumannii assessed as bacterial growth inhibition.
In experiment [35] the test system is Staphylococcus aureus. Description: Antibacterial activity against Ciprofloxacin-resistant Staphylococcus aureus assessed as bacterial growth inhibition.

The MIC is the smallest concentration in the dilution series that meets the test's criterion for growth inhibition. `COc1cc(/C=C/c2ccc(O)cc2)cc(OC)c1` [PTEROSTILBENE]: the MIC with Staphylococcus aureus [1] was 41 µg/mL (≈ 160 µM).

Turning to `CC(=O)OC[C@@H]1O[C@H](n2cc(Cn3c(=O)c4ccccc4n(CCCCCCCCCC[P+](c4ccccc4)(c4ccccc4)c4ccccc4)c3=O)nn2)[C@@H](OC(C)=O)[C@H]1OC(C)=O.[Br-]`, the MIC in the experiment on Staphylococcus aureus [2] and in the experiment on Staphylococcus aureus [4] was 1 µg/mL throughout. The Ratio in the experiment on Staphylococcus aureus [3] came to 7.5.

As for `C=C[C@]1(C)C[C@@H](OC(=O)CN2CCN(C(=O)Cn3cc(CN4CCN(c5ccc([N+](=O)[O-])cc5)CC4)nn3)CC2)[C@@]2(C)[C@@H]3C(=O)CC[C@@]3(CC[C@@H]2C)[C@@H](C)[C@@H]1O`, the Ratio in the experiment with Staphylococcus aureus [5], in the experiment on Staphylococcus aureus [6], with Staphylococcus aureus [12] and in the experiment on Staphylococcus aureus [13] was 2 throughout. Further, in the experiment with Staphylococcus aureus [7], the Activity is reported as -2.07 log10CFU/ml. The MIC with Staphylococcus aureus [8], in the experiment with Staphylococcus aureus [9], in the experiment on Staphylococcus aureus [10] and with Staphylococcus aureus [11] was 1 µg/mL (≈ 1.29 µM) throughout.

On to `O=C1C(=O)N(CCn2cc(COc3cccc4cccnc34)nn2)c2c(Br)cc(Br)cc21`, for which the MIC in the experiment on Staphylococcus aureus [14] is 15.2 µg/mL (≈ 27.3 µM).

On to `O=C(N[C@H](CO)[C@H](O)c1ccc([N+](=O)[O-])cc1)C(Cl)Cl` [CHLORAMPHENICOL], for which the MIC in the experiment with Streptococcus pneumoniae [15] is more than 256 µg/mL; in the experiment with Staphylococcus aureus [16] it was more than 256 µg/mL; in the experiment with Escherichia coli [17], 22.4 µg/mL (≈ 69.3 µM); in the experiment on Streptococcus pneumoniae [21] it was more than 256 µg/mL; in the experiment on Streptococcus pyogenes [22], more than 256 µg/mL; in the experiment with Staphylococcus aureus [24], more than 256 µg/mL. In the experiment on Staphylococcus aureus [25], the MIC was 11.6 µg/mL (≈ 35.9 µM). Besides, the Ratio with Streptococcus pyogenes [18], with Staphylococcus aureus [19], with Staphylococcus aureus [20], with Streptococcus pneumoniae [23] and in the experiment on Streptococcus pneumoniae [26] was more than 16 throughout.

On to `Cc1cc2cc(C#CCCCCCCc3cn(C4(C(C)C)Oc5cc6oc(=O)ccc6cc5C4=O)nn3)c(=O)oc2cc1O` (stereo unspecified), for which the values for the Ratio with Bacillus subtilis [27] and with Escherichia coli [28] were 100 and 6.7, respectively. Besides, the values for the MIC in the experiment on Bacillus subtilis [29] and in the experiment on Escherichia coli [30] were 0.02 µg/mL (≈ 0.0337 µM) and 0.15 µg/mL (≈ 0.253 µM), respectively.

`O=C(O)c1ccc(-n2cc(CNC(=O)c3cc4ccc(=O)oc4cc3O)nn2)cc1`: the MIC is 0.16 µg/mL (≈ 0.394 µM) with Staphylococcus aureus [31], 0.65 µg/mL (≈ 1.6 µM) in the experiment with Staphylococcus aureus [32] and 3.75 µg/mL (≈ 9.23 µM) with Staphylococcus aureus [33].

For `CCOc1c(NC(=O)c2ccc(NC(=O)c3ccc(NC(=O)[C@H](Cc4c[nH]nn4)NC(=O)/C(C)=C/c4ccc(O)cc4)cc3)c(OCC)c2O)ccc(C(=O)O)c1O`, the MIC in the experiment on Escherichia coli [34], in the experiment with Acinetobacter baumannii and in the experiment with Staphylococcus aureus [35] was 0.031 µg/mL (≈ 0.0391 µM) each time.
